Data published in article PMC5218480 (PLoS ONE, 2017).

System: MV-4-11 cells
Experiment: Gene expression microarray analysis (Affymetrix PrimeView) and GSEA
Type: cell-based, human
Conditions: ProbeSet 11758779_at; LIST B

## Nc1ncn([C@@H]2O[C@H](CO)[C@@H](O)[C@H]2O)c(=O)n1 [azacitidine]
  RFU, TMEM50B: 84.99 RFU
